The source of these data is doi:10.1101/2020.09.29.318170v1 (biorxiv, 2020).

What all share (format): biochemical
The target in one experiment is T1, Pd957 (with ΔNHAB1) (Phoenix dactylifera, UniProt A0A8B7BRF0).
T1 sequence (A0A8B7BRF0 1-215): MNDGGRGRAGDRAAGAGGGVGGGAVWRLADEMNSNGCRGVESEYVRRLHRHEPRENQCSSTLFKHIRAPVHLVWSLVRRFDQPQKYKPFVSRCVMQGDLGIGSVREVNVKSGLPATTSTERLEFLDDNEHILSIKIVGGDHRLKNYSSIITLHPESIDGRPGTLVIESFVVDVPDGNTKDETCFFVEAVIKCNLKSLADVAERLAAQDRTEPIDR
T1 sequence (Q9CAJ0 179-511 partner limits assumed): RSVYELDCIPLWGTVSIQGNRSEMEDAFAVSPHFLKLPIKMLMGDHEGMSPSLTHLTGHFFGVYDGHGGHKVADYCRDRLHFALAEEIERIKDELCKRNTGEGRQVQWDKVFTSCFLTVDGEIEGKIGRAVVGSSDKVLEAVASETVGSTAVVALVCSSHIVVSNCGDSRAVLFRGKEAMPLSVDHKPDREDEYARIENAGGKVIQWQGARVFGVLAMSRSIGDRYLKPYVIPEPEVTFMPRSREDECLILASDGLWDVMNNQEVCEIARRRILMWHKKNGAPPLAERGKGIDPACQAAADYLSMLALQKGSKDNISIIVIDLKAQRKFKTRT
The experiment in a line: pNPP phosphatase inhibition assay. The note with it: read-out: % inhibition of HAB1 at 10 μM.

In the next experiment the target is T2, Pd27 (with ΔNHAB1) (Phoenix dactylifera, UniProt A0A8B7BJV2).
T2 sequence (A0A8B7BJV2 1-205): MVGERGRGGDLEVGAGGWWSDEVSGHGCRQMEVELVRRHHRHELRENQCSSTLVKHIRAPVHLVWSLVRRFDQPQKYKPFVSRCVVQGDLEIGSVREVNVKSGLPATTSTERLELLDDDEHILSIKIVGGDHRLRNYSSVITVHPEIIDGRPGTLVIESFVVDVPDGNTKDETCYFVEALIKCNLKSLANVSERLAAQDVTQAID
T2 sequence (Q9CAJ0 179-511 partner limits assumed): T1 sequence (Q9CAJ0 179-511 partner limits assumed)
The experiment can be described thus: pNPP phosphatase inhibition assay.

The next experiment addresses T3, Pd32 (with PdPP2C79) (Phoenix dactylifera, UniProt A0A8B7C461).
T3 sequence (A0A8B7C461 1-202): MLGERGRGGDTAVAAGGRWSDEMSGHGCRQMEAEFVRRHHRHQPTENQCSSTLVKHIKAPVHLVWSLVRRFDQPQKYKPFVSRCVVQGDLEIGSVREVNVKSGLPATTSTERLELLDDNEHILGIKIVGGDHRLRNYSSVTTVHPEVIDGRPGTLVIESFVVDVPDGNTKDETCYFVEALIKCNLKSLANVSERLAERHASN
The experiment can be described thus: phosphopeptide phosphatase inhibition assay. To be noted: read-out: % inhibition of PdPP2C79 at 10 μM ABA.

A further experiment deals with T4, Pd32 (with PdPP2C55) (Phoenix dactylifera, UniProt A0A8B7C461).
T4 sequence (A0A8B7C461 1-202): T3 sequence (A0A8B7C461 1-202)
The experiment can be described thus: phosphopeptide phosphatase inhibition assay. To be noted: read-out: % inhibition of PdPP2C55 at 10 μM ABA.

Molecules are shown by their SMILES.

Regarding `CCCN1C(=O)CCc2cc(NS(=O)(=O)Cc3ccc(C)cc3)ccc21` [quinabactin], the values for the inhibition at 10 µM at Pd957 (with ΔNHAB1) and on Pd27 (with ΔNHAB1) (read-out: % inhibition of HAB1 at 10 μM) were 20 to 30% and 80%, respectively. Regarding `CCCN1C(=O)CCc2cc(NS(=O)(=O)Cc3c(F)c(F)c(C)c(F)c3F)ccc21` [AMF4], the “% inhibition of HAB1 at 10 μM” value on Pd27 (with ΔNHAB1) (10 μM agonist, 1 μM ΔNHAB1, 2 μM receptor, 15 mM pNPP, receptor agonist) was determined as 80%. Take `CC1=CC(=O)CC(C)(C)[C@@]1(O)/C=C/C(C)=C\C(=O)O` [ABA]: the results for the inhibition at 10 µM on Pd32 (with PdPP2C79) and at Pd32 (with PdPP2C55) were 30% and 80%, respectively.
